Data from patent publication US10040781B2, “Tank-binding kinase inhibitor compounds” (Gilead Sciences, Inc., priority 2014, dated 2018).

Assays:
[1] = biological target: IKKε (Homo sapiens (Human), UniProt Q14164); assay: IKKε TR-FRET enzymatic assay; type: biochemical; details: read-out: IKKe IC50
[2] = biological target: hJAK2 (Homo sapiens (Human), UniProt O60674); assay: hJAK2 LANCE TR-FRET enzymatic assay; type: biochemical; details: read-out: JAK2 IC50
[3] = biological target: TBK1 (Homo sapiens (Human), UniProt Q9UHD2); assay: TBK1 TR-FRET enzymatic assay;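 further: phosphorylation of a biotinylated Ser/Thr peptide by purified full-length recombinant TBK1, read by TR-FRET after 240 min at 25 °C, IC50 is the geometric mean of at least four runs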
Chain of TBK1 (Q9UHD2 whole entry): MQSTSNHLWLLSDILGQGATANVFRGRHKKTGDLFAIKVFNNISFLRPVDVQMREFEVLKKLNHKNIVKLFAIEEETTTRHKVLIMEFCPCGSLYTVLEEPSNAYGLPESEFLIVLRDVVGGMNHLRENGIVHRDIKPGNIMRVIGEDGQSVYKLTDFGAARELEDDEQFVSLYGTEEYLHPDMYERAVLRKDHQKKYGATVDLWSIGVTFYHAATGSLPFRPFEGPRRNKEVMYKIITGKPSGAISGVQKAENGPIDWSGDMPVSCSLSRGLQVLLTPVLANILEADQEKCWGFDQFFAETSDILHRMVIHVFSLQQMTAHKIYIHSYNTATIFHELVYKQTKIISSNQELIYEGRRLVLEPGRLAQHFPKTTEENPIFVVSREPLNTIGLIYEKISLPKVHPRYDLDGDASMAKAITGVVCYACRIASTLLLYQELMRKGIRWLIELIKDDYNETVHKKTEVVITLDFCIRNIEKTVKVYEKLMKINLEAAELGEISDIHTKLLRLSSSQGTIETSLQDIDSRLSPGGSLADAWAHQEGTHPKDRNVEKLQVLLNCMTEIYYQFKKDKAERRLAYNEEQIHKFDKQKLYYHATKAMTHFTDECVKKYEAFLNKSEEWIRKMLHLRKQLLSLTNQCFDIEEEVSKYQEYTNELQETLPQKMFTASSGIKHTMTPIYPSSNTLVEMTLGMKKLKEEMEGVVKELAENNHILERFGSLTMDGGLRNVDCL

Chain of IKKε (Q14164 whole entry): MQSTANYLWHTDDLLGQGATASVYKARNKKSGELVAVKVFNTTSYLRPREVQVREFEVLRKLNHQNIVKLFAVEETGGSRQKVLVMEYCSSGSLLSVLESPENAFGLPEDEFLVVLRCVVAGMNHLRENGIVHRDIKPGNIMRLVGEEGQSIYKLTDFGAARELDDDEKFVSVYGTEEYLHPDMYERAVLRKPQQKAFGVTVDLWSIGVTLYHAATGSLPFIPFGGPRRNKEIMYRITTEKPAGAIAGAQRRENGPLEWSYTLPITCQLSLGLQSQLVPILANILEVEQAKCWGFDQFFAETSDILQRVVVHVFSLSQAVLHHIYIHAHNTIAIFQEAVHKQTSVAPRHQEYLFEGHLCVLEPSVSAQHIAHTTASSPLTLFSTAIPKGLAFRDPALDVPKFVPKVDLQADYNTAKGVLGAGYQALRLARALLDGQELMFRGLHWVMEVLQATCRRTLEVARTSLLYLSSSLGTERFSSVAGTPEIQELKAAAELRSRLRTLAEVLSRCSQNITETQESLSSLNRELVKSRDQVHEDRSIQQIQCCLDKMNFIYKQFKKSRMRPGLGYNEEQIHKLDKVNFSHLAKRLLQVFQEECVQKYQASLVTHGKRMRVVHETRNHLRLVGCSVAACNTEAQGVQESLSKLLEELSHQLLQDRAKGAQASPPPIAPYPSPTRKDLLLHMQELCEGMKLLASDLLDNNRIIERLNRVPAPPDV
Chain of hJAK2 (O60674 whole entry): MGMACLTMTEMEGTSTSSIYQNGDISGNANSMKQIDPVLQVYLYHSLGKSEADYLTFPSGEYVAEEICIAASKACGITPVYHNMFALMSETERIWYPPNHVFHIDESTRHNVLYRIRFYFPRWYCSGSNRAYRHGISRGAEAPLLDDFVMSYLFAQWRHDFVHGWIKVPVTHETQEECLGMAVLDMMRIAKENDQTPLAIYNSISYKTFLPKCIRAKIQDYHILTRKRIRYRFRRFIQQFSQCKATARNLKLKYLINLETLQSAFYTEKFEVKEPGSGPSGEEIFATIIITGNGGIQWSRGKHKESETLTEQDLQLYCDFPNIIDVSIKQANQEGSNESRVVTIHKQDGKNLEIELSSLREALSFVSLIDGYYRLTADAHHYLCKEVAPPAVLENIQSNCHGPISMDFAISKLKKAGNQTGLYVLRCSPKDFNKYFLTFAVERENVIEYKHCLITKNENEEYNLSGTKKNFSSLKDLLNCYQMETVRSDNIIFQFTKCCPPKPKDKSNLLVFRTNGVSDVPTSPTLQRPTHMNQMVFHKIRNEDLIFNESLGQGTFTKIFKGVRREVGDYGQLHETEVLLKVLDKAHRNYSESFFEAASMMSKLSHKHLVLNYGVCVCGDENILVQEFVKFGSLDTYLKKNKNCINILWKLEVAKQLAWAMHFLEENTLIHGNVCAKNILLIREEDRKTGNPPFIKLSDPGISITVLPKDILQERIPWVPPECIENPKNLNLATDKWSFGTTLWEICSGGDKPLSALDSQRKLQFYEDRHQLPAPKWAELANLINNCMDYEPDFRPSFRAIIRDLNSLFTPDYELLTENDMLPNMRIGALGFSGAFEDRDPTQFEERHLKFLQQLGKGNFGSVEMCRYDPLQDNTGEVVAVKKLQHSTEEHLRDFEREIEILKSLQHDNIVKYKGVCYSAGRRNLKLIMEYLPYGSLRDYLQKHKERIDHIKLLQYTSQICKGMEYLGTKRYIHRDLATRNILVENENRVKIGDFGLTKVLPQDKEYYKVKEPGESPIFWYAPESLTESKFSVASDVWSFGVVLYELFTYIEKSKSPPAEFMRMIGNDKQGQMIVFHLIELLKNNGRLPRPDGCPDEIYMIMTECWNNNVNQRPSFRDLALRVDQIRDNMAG

| SMILES | IC50 [1] [nM] | IC50 [2] [nM] | IC50 [3] [nM] |
| --- | --- | --- | --- |
| CN1CCN(C(=O)c2ccc(Nc3ncnc(-c4ccc(O[C@H]5CCN(C(=O)CO)C[C@H]5F)c(C#N)c4)n3)cc2)CC1 [Example 119, 2-(((3R,4S)-3-fluoro-1-(2-hydroxyacetyl)piperidin-4-yl)oxy)-5-(4-((4-(4-methylpiperazine-1-carbonyl)phenyl)amino)-1,3,5-triazin-2-yl)benzonitrile] | 2 | 338 | 6 |
| C[C@H](O)C(=O)N1CC[C@H](Oc2ccc(-c3ncnc(Nc4ccc(C(=O)N5CCN(C)CC5)cc4)n3)cc2C#N)[C@H](F)C1 [Example 120, 2-(((3R,4S)-3-fluoro-1-((S)-2-hydroxypropanoyl)piperidin-4-yl)oxy)-5-(4-((4-(4-methylpiperazine-1-carbonyl)phenyl)amino)-1,3,5-triazin-2-yl)benzonitrile] | 2 | 674 | 4 |
| N#Cc1cc(-c2ncnc(Nc3ccc(N4CCN(C5COC5)CC4)cc3)n2)ccc1NC1CCOCC1 [Example 121, 5-(4-((4-(4-(oxetan-3-yl)piperazin-1-yl)phenyl)amino)-1,3,5-triazin-2-yl)-2-((tetrahydro-2H-pyran-4-yl)amino)benzonitrile] | 47 | 32 | 11 |
| COC1CCC(Oc2ccc(-c3ncnc(Nc4ccc(N5CCN(C6COC6)CC5)cc4)n3)cc2C#N)CC1 (stereo not drawn) [Example 122, 2-((4-methoxycyclohexyl)oxy)-5-(4-((4-(4-(oxetan-3-yl)piperazin-1-yl)phenyl)amino)-1,3,5-triazin-2-yl)benzonitrile] | 15 | 402 | 15 |
| C[C@@H](CO)C(=O)N1CC[C@H](Oc2ccc(-c3ncnc(Nc4ccc(N5CCN(C6COC6)CC5)cc4)n3)cc2C#N)[C@H](F)C1 [Example 123, 2-(((3R,4S)-3-fluoro-1-((S)-3-hydroxy-2-methylpropanoyl)piperidin-4-yl)oxy)-5-(4-((4-(4-(oxetan-3-yl)piperazin-1-yl)phenyl)amino)-1,3,5-triazin-2-yl)benzonitrile] | 132 | 546 | 31 |
| C[C@H](CO)C(=O)N1CC[C@H](Oc2ccc(-c3ncnc(Nc4ccc(N5CCN(C6COC6)CC5)cc4)n3)cc2C#N)[C@H](F)C1 [Example 124, 2-(((3R,4S)-3-fluoro-1-((R)-3-hydroxy-2-methylpropanoyl)piperidin-4-yl)oxy)-5-(4-((4-(4-(oxetan-3-yl)piperazin-1-yl)phenyl)amino)-1,3,5-triazin-2-yl)benzonitrile] | 54 | 676 | 15 |
| N#Cc1cc(-c2ncnc(Nc3ccc(N4CCN(C5COC5)CC4)cc3)n2)ccc1O[C@@H]1CCCN(C(=O)CO)C1 [Example 125, (R)-2-((1-(2-hydroxyacetyl)piperidin-3-yl)oxy)-5-(4-((4-(4-(oxetan-3-yl)piperazin-1-yl)phenyl)amino)-1,3,5-triazin-2-yl)benzonitrile] | 86 | 952 | 31 |
| C[C@H](O)C(=O)N1CCC[C@@H](Oc2ccc(-c3ncnc(Nc4ccc(N5CCN(C6COC6)CC5)cc4)n3)cc2C#N)C1 [Example 126, 2-(((R)-1-((S)-2-hydroxypropanoyl)piperidin-3-yl)oxy)-5-(4-((4-(4-(oxetan-3-yl)piperazin-1-yl)phenyl)amino)-1,3,5-triazin-2-yl)benzonitrile] | 111 | ≥ 1000 | 56 |
| N#Cc1cc(-c2ncnc(Nc3ccc(N4CCN(C5COC5)CC4)cc3)n2)ccc1O[C@H]1CCCN(C(=O)CO)C1 [Example 127, (S)-2-((1-(2-hydroxyacetyl)piperidin-3-yl)oxy)-5-(4-((4-(4-(oxetan-3-yl)piperazin-1-yl)phenyl)amino)-1,3,5-triazin-2-yl)benzonitrile] | 562 | 394 | 180 |
| C[C@H](O)C(=O)N1CCC[C@H](Oc2ccc(-c3ncnc(Nc4ccc(N5CCN(C6COC6)CC5)cc4)n3)cc2C#N)C1 [Example 128, 2-(((S)-1-((S)-2-hydroxypropanoyl)piperidin-3-yl)oxy)-5-(4-((4-(4-(oxetan-3-yl)piperazin-1-yl)phenyl)amino)-1,3,5-triazin-2-yl)benzonitrile] | 177 | 632 | 37 |
| N#Cc1cc(-c2ncnc(Nc3ccc(N4CCN(C5COC5)CC4)cc3)n2)ccc1O[C@H]1CCN(C(=O)[C@H]2CCCCN2)C[C@H]1F [Example 129, 2-(((3R,4S)-3-fluoro-1-((R)-piperidine-2-carbonyl)piperidin-4-yl)oxy)-5-(4-((4-(4-(oxetan-3-yl)piperazin-1-yl)phenyl)amino)-1,3,5-triazin-2-yl)benzonitrile] | 619 | ≥ 1000 | 334 |
| N#Cc1cc(-c2ncnc(Nc3ccc(N4CCN(C5COC5)CC4)cc3)n2)ccc1O[C@H]1CCN(C(=O)[C@H]2CCCN2)C[C@H]1F [Example 130, 2-(((3R,4S)-3-fluoro-1-((R)-pyrrolidine-2-carbonyl)piperidin-4-yl)oxy)-5-(4-((4-(4-(oxetan-3-yl)piperazin-1-yl)phenyl)amino)-1,3,5-triazin-2-yl)benzonitrile] | 73 | ≥ 1000 | 29 |
| N#Cc1cc(-c2ncnc(Nc3ccc(N4CCN(C5COC5)CC4)cc3)n2)ccc1O[C@H]1CCN(C(=O)[C@@H]2CCCCN2)C[C@H]1F [Example 131, 2-(((3R,4S)-3-fluoro-1-((S)-piperidine-2-carbonyl)piperidin-4-yl)oxy)-5-(4-((4-(4-(oxetan-3-yl)piperazin-1-yl)phenyl)amino)-1,3,5-triazin-2-yl)benzonitrile] | 175 | ≥ 1000 | 101 |
| N#Cc1cc(-c2ncnc(Nc3ccc(N4CCN(C5COC5)CC4)cc3)n2)ccc1O[C@H]1CCN(C(=O)[C@H]2CC(F)(F)CN2)C[C@H]1F [Example 132, 2-(((3R,4S)-1-((R)-4,4-difluoropyrrolidine-2-carbonyl)-3-fluoropiperidin-4-yl)oxy)-5-(4-((4-(4-(oxetan-3-yl)piperazin-1-yl)phenyl)amino)-1,3,5-triazin-2-yl)benzonitrile] | 51 | ≥ 1000 | 25 |
| C[C@H](O)C(=O)N1CCC(Oc2cc(C#N)cc(-c3ncnc(Nc4ccc(N5CCN(C6COC6)CC5)cc4)n3)c2)CC1 [Example 134, (S)-3-((1-(2-hydroxypropanoyl)piperidin-4-yl)oxy)-5-(4-((4-(4-(oxetan-3-yl)piperazin-1-yl)phenyl)amino)-1,3,5-triazin-2-yl)benzonitrile] | ≥ 1000 | 371 | 520 |
| N#Cc1cc(-c2ncnc(Nc3ccc(N4CCN(C5COC5)CC4)cc3)n2)ccc1O[C@H]1CCN(C(=O)c2cn[nH]c2Cl)C[C@H]1F [Example 136, 2-(((3R,4S)-1-(5-chloro-1H-pyrazole-4-carbonyl)-3-fluoropiperidin-4-yl)oxy)-5-(4-((4-(4-(oxetan-3-yl)piperazin-1-yl)phenyl)amino)-1,3,5-triazin-2-yl)benzonitrile] | 73 | 167 | 46 |
| N#Cc1cc(-c2ncnc(Nc3ccc(N4CCN(C5COC5)CC4)cc3)n2)ccc1O[C@H]1CCN(C(=O)c2cc[nH]c(=O)c2)C[C@H]1F [Example 137, 2-(((3R,4S)-3-fluoro-1-(2-oxo-1,2-dihydropyridine-4-carbonyl)piperidin-4-yl)oxy)-5-(4-((4-(4-(oxetan-3-yl)piperazin-1-yl)phenyl)amino)-1,3,5-triazin-2-yl)benzonitrile] | 32 | 207 | 19 |
| N#CCC(=O)N1CC[C@H](Oc2ccc(-c3ncnc(Nc4ccc(N5CCN(C6COC6)CC5)cc4)n3)cc2C#N)[C@H](F)C1 [Example 138, 2-(((3R,4S)-1-(2-cyanoacetyl)-3-fluoropiperidin-4-yl)oxy)-5-(4-((4-(4-(oxetan-3-yl)piperazin-1-yl)phenyl)amino)-1,3,5-triazin-2-yl)benzonitrile] | 2 | 146 | 2 |
| N#Cc1cc(-c2ncnc(Nc3ccc(N4CCN(C5COC5)CC4)cc3)n2)ccc1O[C@H]1CCN(C(=O)CCO)C[C@H]1F [Example 139, 2-(((3R,4S)-3-fluoro-1-(3-hydroxypropanoyl)piperidin-4-yl)oxy)-5-(4-((4-(4-(oxetan-3-yl)piperazin-1-yl)phenyl)amino)-1,3,5-triazin-2-yl)benzonitrile] | 7 | 408 | 4 |
| N#Cc1cc(-c2ncnc(Nc3ccc(N4CCN(C5COC5)CC4)cc3)n2)ccc1O[C@H]1CCN(C(=O)C2(O)CC2)C[C@H]1F [Example 140, 2-(((3R,4S)-3-fluoro-1-(1-hydroxycyclopropanecarbonyl)piperidin-4-yl)oxy)-5-(4-((4-(4-(oxetan-3-yl)piperazin-1-yl)phenyl)amino)-1,3,5-triazin-2-yl)benzonitrile] | 10 | 341 | 6 |
| N#Cc1cc(-c2ncnc(Nc3ccc(N4CCN(C5COC5)CC4)cc3)n2)ccc1O[C@H]1CCN(C(=O)c2ccc[nH]2)C[C@H]1F [Example 141, 2-(((3R,4S)-3-fluoro-1-(1H-pyrrole-2-carbonyl)piperidin-4-yl)oxy)-5-(4-((4-(4-(oxetan-3-yl)piperazin-1-yl)phenyl)amino)-1,3,5-triazin-2-yl)benzonitrile] | 2 | 356 | 3 |
| N#Cc1cc(-c2ncnc(Nc3ccc(N4CCN(C5COC5)CC4)cc3)n2)ccc1O[C@H]1CCN(C(=O)c2ncc[nH]2)C[C@H]1F [Example 142, 2-(((3R,4S)-3-fluoro-1-(1H-imidazole-2-carbonyl)piperidin-4-yl)oxy)-5-(4-((4-(4-(oxetan-3-yl)piperazin-1-yl)phenyl)amino)-1,3,5-triazin-2-yl)benzonitrile] | 4 | 174 | 3 |
